These results are taken from patent publication US9963464B2, “Macrocyclic compounds” (Bayer Pharma Aktiengesellschaft, priority 2014, dated 2018).

The test system of one data set is rat hepatocytes. Kind of data set: In vitro metabolic stability in rat hepatocytes. It counts as in vitro ADME. To be noted: 1 μM. On the procedure: 6. Investigation of In Vitro Metabolic Stability in Rat Hepatocytes
Hepatocytes from Han Wistar rats were isolated via a 2-step perfusion method. After perfusion, the liver was carefully removed from the rat: the liver capsule was opened and the hepatocytes were gently shaken out into a Petri dish with ice-cold Williams medium E (purchased from Sigma Aldrich Life Science, St Louis, Mo.). The resulting cell suspension was filtered through sterile gaze in 50 ml falcon tubes and centrifuged at 50×g for 3 min at room temperature. The cell pellet was resuspended in 30 ml WME and centrifuged through a Percoll® gradient for 2 times at 100×g. The hepatocytes were washed again with Williams' medium E (WME) and resuspended in medium containing 5% Fetal calf serum (FCS, purchased from Invitrogen, Auckland, NZ). Cell viability was determined by trypan blue exclusion.
For the metabolic stability assay liver cells were distributed in WME containing 5% FCS to glass vials at a density of 1.0×10^6 vital cells/ml. The test compound was added to a final concentration of 1 μM. During incubation, the hepatocyte suspensions were continuously shaken and aliquots were taken at 2, 8, 16, 30, 45 and 90 min, to which equal volumes of cold acetonitrile were immediately added. Samples were frozen at −20° C. over night, after subsequently centrifuged for 15 minutes at 3000 rpm and the supernatant was analyzed with an Agilent 1200 HPLC-system with LCMS/MS detection.
The half-life of a test compound was determined from the concentration-time plot. From the half-life the intrinsic clearances were calculated.

Data set [1] addresses T1, human PTEFb (CDK9/Cyclin T1) (Homo sapiens, UniProt P50750).
T1 construct: purchased ProQinase, Freiburg, Germany
The data set can be described thus: Surface plasmon resonance PTEFb. As to conditions: SPR; for koff: 25° C., below 5E-5 s^-1 not resolvable, read-out: Dissociation rate constant koff; for Target resident time: 1/koff. The data set is classed as binding. An excerpt:
8. Surface Plasmon Resonance PTEFb
The term “surface plasmon resonance”, as used herein, refers to an optical phenomenon that allows for the analysis of the reversible associations of biological molecules in real time within a biosensor matrix, for example using the Biacore® system (GE Healthcare Biosciences, Uppsala, Sweden). Biacore® uses the optical properties of surface plasmon resonance (SPR) to detect alterations in the refractive index of a buffer, which changes as molecules in solution interact with the target immobilized on the surface. In brief, proteins are covalently bound to the dextran matrix at a known concentration and a ligand for the protein is injected through the dextran matrix. Near infrared light, directed onto the opposite side of the sensor chip surface is reflected and also induces an evanescent wave in the gold film, which in turn, causes an intensity dip in the reflected light at a particular angle known as the resonance angle. If the refractive index of the sensor chip surface is altered (e.g. by compound binding to the bound protein) a shift occurs in the resonance angle. This angle shift can be measured.
The term “KD”, as used herein, is intended to refer to the equilibrium dissociation constant of a particular compound/target protein complex.
The term “koff”, as used herein, is intended to refer to the off-rate, i.e. the dissociation rate constant of a particular compound/target protein complex.
The term “target residence time”, as used herein, is intended to refer to the inverse of the rate of dissociation rate constant (1/koff) of a particular compound/target protein complex.
The ability of the compounds according to the invention to bind human PTEFb may be determined using surface plasmon resonance (SPR). KD values and koff values may be measured using a Biacore® T200 instrument (GE Healthcare, Uppsala, Sweden).
For SPR measurements, recombinant human PTEFb (CDK9/Cyclin T1 recombinant human active protein kinase purchased from ProQinase, Freiburg, Germany) is immobilized using standard amine coupling (Johnsson B et al, Anal Biochem. 1991 Nov. 1; 198(2):268-77). Briefly, carboxymethylated dextran biosensor chips (CM7, GE Healthcare) are activated with N-ethyl-N′-(3-dimethylaminopropyl)-carbodiimide hydrochloride (EDC) and N-hydroxysuccinimide (NHS) according to the supplier's instructions. Human PTEFb is diluted in 1×HBS-EP+(GE Healthcare) into 30 μg/ml and injected on the activated chip surface. Subsequently, a 1:1 solution of 1 M ethanolamine-HCl (GE Healthcare) and 1×HBS-EP is injected to block unreacted groups, resulting in approximately 4000 response units (RU) of immobilized protein. A reference surface is generated by treatment with NHS-EDC and ethanolamine-HCl. Compounds are dissolved in 100% dimethylsulfoxide (DMSO, Sigma-Aldrich, Germany) to a concentration of 10 mM and subsequently diluted in running buffer (1×HBS-EP+pH 7.4 [generated from HBS-EP+Buffer 10× (GE Healthcare): 0.1 M HEPES, 1.5 M NaCl, 30 mM EDTA and 0.5% v/v Surfactant P20], 1% v/v DMSO). For kinetic measurements, four-fold serial dilutions of compound (0.39 nM to 100 nM) are injected over immobilized protein. Binding kinetics is measured at 25° C. with a flow rate of 50 μl/min in running buffer. Compound concentrations are injected for 60 s followed by a dissociation time of 1800 s. The resulting sensorgrams are double-referenced against the reference surface as well as against blank injections.
The double-referenced sensorgrams are fit to a simple reversible Langmuir 1:1 reaction mechanism as implemented in the Biacore® T200 evaluation software 2.0 (GE Healthcare). In cases were full compound dissociation has not occurred at the end of the dissociation phase, the Rmax parameter (response at saturation) is fit as local variable. In all other cases, Rmax is fit as global variable.

Another data set can be described thus: Caco-2 permeation assay. It counts as in vitro ADME. As to conditions: human, pH 7.2, Caco-2 monolayer, 2 μM test compound; for Papp A→B at 2 h, 2 μM: read-out: Papp A-B (Mari); for Papp B→A at 2 h, 2 μM: read-out: Papp B-A (Mari); for efflux ratio at 2 h, 2 μM: read-out: Efflux ratio (Papp B-A/Papp A-B). On the procedure:
5. Caco-2 Permeation Assay:
Caco-2 cells (purchased from DSMZ Braunschweig, Germany) were seeded at a density of 4.5×10^4 cells per well on 24 well insert plates, 0.4 μm pore size, and grown for 15 days in DMEM medium supplemented with 10% fetal bovine serum, 1% GlutaMAX (100×, GIBCO), 100 U/mL penicillin, 100 μg/mL streptomycin (GIBCO) and 1% non essential amino acids (100×). Cells were maintained at 37° C. in a humidified 5% CO2 atmosphere. Medium was changed every 2-3 day. Before running the permeation assay, the culture medium was replaced by a FCS-free hepes-carbonate transport buffer (pH 7.2). For assessment of monolayer integrity the transepithelial electrical resistance (TEER) was measured. Test compounds were predissolved in DMSO and added either to the apical or basolateral compartment in final concentration of 2 μM in transport buffer. Before and after 2 h incubation at 37° C. samples were taken from both compartments. Analysis of compound content was done after precipitation with methanol by LC/MS/MS analysis. Permeability (Papp) was calculated in the apical to basolateral (A→B) and basolateral to apical (B→A) directions. The apparent permeability was calculated using following equation: Papp=(Vr/Po)(1/S)(P2/t) Where Vr is the volume of medium in the receiver chamber, Po is the measured peak area or height of the test drug in the donor chamber at t=o, S the surface area of the monolayer, P2 is the measured peak area of the test drug in the acceptor chamber after 2 h of incubation, and t is the incubation time. The efflux ratio basolateral (B) to apical (A) was calculated by dividing the Papp B-A by the Papp A-B. In addition the compound recovery was calculated.
A general note: Passage across Caco-2 layers is used to estimate intestinal permeability.

T1 sequence (P50750 whole entry): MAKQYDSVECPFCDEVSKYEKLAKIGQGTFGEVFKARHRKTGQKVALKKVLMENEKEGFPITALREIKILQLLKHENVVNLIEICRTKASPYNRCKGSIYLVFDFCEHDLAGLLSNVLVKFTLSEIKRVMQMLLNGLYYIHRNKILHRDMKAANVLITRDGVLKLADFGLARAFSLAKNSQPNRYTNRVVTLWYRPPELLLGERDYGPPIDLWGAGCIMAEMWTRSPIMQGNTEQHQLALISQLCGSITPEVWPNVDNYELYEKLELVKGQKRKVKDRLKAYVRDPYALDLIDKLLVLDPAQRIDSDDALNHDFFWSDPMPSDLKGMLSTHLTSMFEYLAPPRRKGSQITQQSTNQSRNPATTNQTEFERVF
T1 sequence (O60563 whole entry partner): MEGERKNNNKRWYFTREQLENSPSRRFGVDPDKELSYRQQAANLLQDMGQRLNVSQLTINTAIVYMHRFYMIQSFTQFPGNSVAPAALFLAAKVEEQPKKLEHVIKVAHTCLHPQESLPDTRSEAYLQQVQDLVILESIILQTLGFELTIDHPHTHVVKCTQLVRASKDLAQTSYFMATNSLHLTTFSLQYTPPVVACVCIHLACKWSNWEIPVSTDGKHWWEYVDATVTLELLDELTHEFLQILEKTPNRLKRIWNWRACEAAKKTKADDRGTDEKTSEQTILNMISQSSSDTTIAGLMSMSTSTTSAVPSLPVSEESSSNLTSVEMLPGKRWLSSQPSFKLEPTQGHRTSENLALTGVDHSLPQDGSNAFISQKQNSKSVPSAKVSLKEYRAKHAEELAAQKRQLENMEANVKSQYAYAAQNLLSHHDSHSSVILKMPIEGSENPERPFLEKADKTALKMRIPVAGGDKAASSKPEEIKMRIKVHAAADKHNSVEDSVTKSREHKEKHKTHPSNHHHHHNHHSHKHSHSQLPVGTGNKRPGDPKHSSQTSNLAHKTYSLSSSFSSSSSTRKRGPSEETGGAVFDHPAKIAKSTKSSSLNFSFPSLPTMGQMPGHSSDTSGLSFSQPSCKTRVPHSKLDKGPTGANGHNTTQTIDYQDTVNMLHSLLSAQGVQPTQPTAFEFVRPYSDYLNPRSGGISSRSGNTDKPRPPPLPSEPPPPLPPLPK

Consider `CS(=N)(=O)Cc1cc2cc(c1)OCCCCOc1cc(F)ccc1-c1nc(ncc1F)N2` (racemic) [Example 1, (rac)-16,20-Difluoro-9-[(S-methylsulfonimidoyl)methyl]-2,3,4,5-tetrahydro-12H-13,17-(azeno)-11,7-(metheno)-1,6,12,14-benzodioxadiazacyclononadecine], for which the “maximal calculated oral bioavailability (Fmax) based on stability data in rat hepatocytes” value (“maximal calculated oral bioavailability” for short) in the data set on rat hepatocytes is 69%. For the same compound, in data set [1], the dissociation rate constant (koff) is less than 5e-05 s⁻¹ and the Target resident time is given as more than 333 min. Moreover, in “Caco-2 permeation assay”, the Papp A→B at 2 h, 2 μM was 13.9 ×10⁻⁶ cm/s; the Papp B→A at 2 h, 2 μM amounted to 19.7 ×10⁻⁶ cm/s; the efflux ratio at 2 h, 2 μM was determined as 1.4.
Turning to `CS(=N)(=O)Cc1cc2nc(c1)OCCCOc1cc(F)ccc1-c1cc(ncc1F)N2` (racemic) [Example 5, (rac)-15,19-Difluoro-8-[(S-methylsulfonimidoyl)methyl]-3,4-dihydro-2H,11H-10,6-(azeno)-12,16-(metheno)-1,5,11,13-benzodioxadiazacyclooctadecine], the “maximal calculated oral bioavailability” value with rat hepatocytes is listed as 62%. Further, in data set [1], the koff stood at 9.3e-05 s⁻¹ and the Target resident time is reported as 179.2 min. In “Caco-2 permeation assay”, the Papp A→B at 2 h, 2 μM worked out at 4.7 ×10⁻⁶ cm/s; the Papp B→A at 2 h, 2 μM was found to be 4.3 ×10⁻⁶ cm/s; the efflux ratio at 2 h, 2 μM turned out to be 0.91.
Turning to `CS(=N)(=O)Cc1cc2cc(c1)OCCCOc1cc(F)ccc1-c1nc(ncc1F)N2` (racemic) [Example 15, (rac)-15,19-difluoro-8-[(S-methylsulfonimidoyl)methyl]-3,4-dihydro-2H,11H-12,16-(azeno)-10,6-(metheno)-1,5,11,13-benzodioxadiazacyclooctadecine], the “maximal calculated oral bioavailability” value in the data set on rat hepatocytes was 76%. Also, in data set [1], the koff is less than 5e-05 s⁻¹ and the Target resident time is on record as more than 333 min.
With `CS(=O)(Cc1cc2nc(c1)OCCCOc1cc(F)ccc1-c1cc(ncc1F)N2)=NC(=O)OCCN` (racemic) [Example 25, (rac)-2-aminoethyl [{[15,19-difluoro-3,4-dihydro-2H,11H-10,6-(azeno)-12,16-(metheno)-1,5,11,13-benzodioxadiazacyclooctadecin-8-yl]methyl}(methyl)oxido-λ^6-sulfanylidene]carbamate], in the data set “Caco-2 permeation assay”, the Papp A→B at 2 h, 2 μM was 0.4 ×10⁻⁶ cm/s; the Papp B→A at 2 h, 2 μM turned out to be 26.2 ×10⁻⁶ cm/s; the efflux ratio at 2 h, 2 μM turned out to be 74.5.
In the case of `CS(=O)(=O)Cc1cc2nc(c1)OCCCOc1cc(F)ccc1-c1cc(ncc1F)N2` [Example 8, 15,19-difluoro-8-[(methylsulfonyl)methyl]-3,4-dihydro-2H,11H-10,6-(azeno)-12,16-(metheno)-1,5,11,13-benzodioxadiazacyclooctadecine], in data set [1], the koff is less than 5e-05 s⁻¹ and the Target resident time is recorded as more than 333 min. For the same compound, in the data set “Caco-2 permeation assay”, the Papp A→B at 2 h, 2 μM worked out at 6.7 ×10⁻⁶ cm/s; the Papp B→A at 2 h, 2 μM is 5.5 ×10⁻⁶ cm/s; the efflux ratio at 2 h, 2 μM came out at 0.8.
In the case of `NCCS(=O)(=O)Cc1cc2nc(c1)OCCCOc1cc(F)ccc1-c1cc(ncc1F)N2` [Example 26, 2-({[15,19-difluoro-3,4-dihydro-2H,11H-10,6-(azeno)-12,16-(metheno)-1,5,11,13-benzodioxadiazacyclooctadecin-8-yl]methyl}sulfonyl)ethanamine], in the data set “Caco-2 permeation assay”, the Papp A→B at 2 h, 2 μM worked out at 1.2 ×10⁻⁶ cm/s; the Papp B→A at 2 h, 2 μM worked out at 7.6 ×10⁻⁶ cm/s; the efflux ratio at 2 h, 2 μM was 6.5.

By koff is commonly meant a measure of how fast the partners let go of each other. Broadly, the Papp A→B is the apparent permeability from the apical to the basolateral side of a cell layer. As usually defined, the Papp B→A is how fast a substance crosses the layer from the basolateral side.
